Measurements as given in patent US20070225363A1, “Methods and Agents for Inhibiting Dynamin-Dependent Endocytosis” (the University of Newcastle Research Associates Ltd., priority 2003, published 2007).
pIC50: −log10 of the molar value. Entries after “also recorded” stand apart in the source; their conditions may differ.

Tests used:
dynamin II [1] = target: T1, dynamin II (Rattus norvegicus, UniProt P39052); test: Dynamin II GTPase assay ([γ-32P]GTP hydrolysis); type: biochemical; conditions: GTPase activity, FIG. 1e
T1 construct: made in house; host or cells: insect cells
T1 sequence (P39052 1-870): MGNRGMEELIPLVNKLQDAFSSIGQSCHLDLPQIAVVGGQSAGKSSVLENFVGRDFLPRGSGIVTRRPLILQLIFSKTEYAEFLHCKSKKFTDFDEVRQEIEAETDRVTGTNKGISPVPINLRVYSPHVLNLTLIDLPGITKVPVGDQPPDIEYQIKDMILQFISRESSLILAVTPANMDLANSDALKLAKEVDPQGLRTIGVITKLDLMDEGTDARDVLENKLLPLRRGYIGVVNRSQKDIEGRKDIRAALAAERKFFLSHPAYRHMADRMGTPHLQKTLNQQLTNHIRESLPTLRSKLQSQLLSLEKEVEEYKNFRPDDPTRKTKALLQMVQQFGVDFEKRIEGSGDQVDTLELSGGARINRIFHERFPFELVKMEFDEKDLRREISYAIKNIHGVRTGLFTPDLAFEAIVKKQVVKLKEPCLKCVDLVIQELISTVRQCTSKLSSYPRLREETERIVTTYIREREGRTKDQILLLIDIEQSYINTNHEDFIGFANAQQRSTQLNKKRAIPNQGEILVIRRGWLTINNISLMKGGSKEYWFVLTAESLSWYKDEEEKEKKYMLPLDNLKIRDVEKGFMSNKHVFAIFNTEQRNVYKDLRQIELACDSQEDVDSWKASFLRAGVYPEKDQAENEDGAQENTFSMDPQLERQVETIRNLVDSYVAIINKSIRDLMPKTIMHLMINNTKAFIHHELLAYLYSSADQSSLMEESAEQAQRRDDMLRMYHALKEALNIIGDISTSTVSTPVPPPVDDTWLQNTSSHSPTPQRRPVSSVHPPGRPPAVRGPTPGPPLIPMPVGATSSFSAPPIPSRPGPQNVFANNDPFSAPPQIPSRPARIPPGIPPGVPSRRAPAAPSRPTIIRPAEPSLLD
Description: The plasmid for GST-Amph2-SH3 (muscle Amph2) (Butler et al., 1997) was provided by Pieto DeCamilli, Yale, Connecticut, USA, in pGEX2T vectors. The plasmid was grown in E. coli and the GST-Amph2-SH3 fusion protein was purified on glutathione (GSH)-Sepharose by elution with 10 mM reduced GSH in 20 mM Tris-HCl, pH 7.5, dialysed against the same buffer without GSH and stored at 4° C. Dynamin was purified from sheep brain by extraction from the peripheral membrane fraction of whole brain (Robinson et al., 1993) and affinity purification on GST-Amph2-SH3-sepharose as previously described (Marks and McMahon., 1998), yielding 8 mg protein from 250 g sheep brain. Recombinant dynamin II was expressed in insect cells and was a gift from Dr Sandra Schmid (Scripps, San Diego, Calif.). Recombinant dynamin I lacking the PH domain (dynamin PH, provided by Robin Scaife) was expressed in insect cells using baculoviral infection (Salim et al., 1996).
Dynamin GTPase activity was determined by hydrolysis of [ ? -^32P]GTP by a method modified from that described previously (Robinson et al., 1993). […] Dynamin activity was measured as either basal or phospholipid-stimulated with the addition of 5 μg/ml L-phosphatidylserine. […] After centrifuging for 5 min (13,000 rpm at room temperature), 200 μl of each supernatant was counted in a -counter for the release of ^32Pi from [ ? -^32P]-GTP.

Arf2 = test: [α-32P]-GTP binding to small G protein Arf2; conditions: data not shown
Description: Competition of these drugs with GTP for the active site of 4 small G proteins (Rab3A, Ras, Arf2, RalA) was also tested.

dynamin II [2] = test: [α-32P]-GTP binding assay, dynamin II
Description: The [α-^32P]-GTP-binding assay was performed in the wells of a 96-well microtitre plate. Dynamin (0.2 μg/well) was added to GTPase buffer and incubated for 10 min at 4 C in the dark. [α-^32P]-GTP (2 μCi/tube) was then added to the reaction and incubated for a further 10 min at 4 C. in the dark. The microtitre plate was then irradiated with a short wavelength ultraviolet lamp at […] for 30 min at a distance of 8 cm. The specificity of photolabelling was determined by comparing the labelling in the presence and absence of 1 mM cold GTP. Samples were then applied to nitrocellulose membranes by aspiration through the wells of a 24 well slot blotter. The nitrocellulose was washed 3 times with PBS and dried. Bound nucleotide was detected by a phosphorimager (Molecular Dynamics).

N#C/C(=C\c1ccc(O)c(O)c1)C(=O)NCCCNC(=O)/C(C#N)=C/c1ccc(O)c(O)c1 [bis-tyrphostin]
pIC50 (dynamin II [1]): 6.30 | effect on [α-32P]-GTP binding to Arf2 (Arf2): neither drug affected | [α-32P]-GTP binding to dynamin II in the presence of drug (dynamin II [2]): not seen to decrease; also recorded: not affected
